Results published in patent US8217055B2, “Pyrido-pyrazine derivatives useful as herbicidal compounds” (Syngenta Crop Protection LLC, priority 2006, dated 2012).

What was measured:
Assay type in all cases: in vivo
Amaranthus retroflexus [1] = experiment: Example B1 herbicidal action, post-emergence, seed trays in climatic chamber (score 10=total damage to plant, 0=no damage to plant); conditions: Application post-emergence, 1000 g/ha, evaluated after 9 days
Protocol: (§1) Seeds of a variety of test species were sown in sterilised standard soil in seed trays each having 96 cells. After cultivation for 8 to 9 days cultivation (post-emergence) under controlled conditions in a climatic chamber (cultivation at 23/17° C., day/night; 13 hours light; 50-60% humidity), the plants were treated with an aqueous spray solution of 1000 mg/l of the active ingredient dissolved in 10% DMSO (dimethyl sulfoxide, CAS RN 67-68-5) as a solvent, equivalent to 1000 g/ha. The plants were grown in the climatic chamber after application at (24/19° C., day/night; 13 hours light; 50-60% humidity) and watered twice daily. After 9 days until the test was evaluated (10=total damage to plant, 0=no damage to plant)

Solanum nigrum [2] = experiment: as above; conditions: Application post-emergence, 1000 g/ha, evaluated after 9 days
Protocol: as §1

Stellaria media = experiment: as above; conditions: Application post-emergence, 1000 g/ha, evaluated after 9 days
Protocol: as §1

Nasturtium officinale = experiment: as above; conditions: Application post-emergence, 1000 g/ha, evaluated after 9 days
Protocol: as §1

Amaranthus retroflexus [3] = experiment: Example B2 herbicidal action, post-emergence, pots in glasshouse, evaluated after 13 days (10=total damage to plant; 0=no damage to plant); conditions: rate 1000 g/ha
Protocol: (§2) Seeds of a variety of test species were sown in standard soil in pots. After 8 days cultivation (post-emergence) under controlled conditions in a glasshouse (at 24/16° C., day/night; 14 hours light; 65% humidity), the plants were sprayed with an aqueous spray solution derived from the formulation of the technical active ingredient in acetone/water (50:50) solution containing 0.5% Tween 20 (polyoxyethelyene sorbitan monolaurate, CAS RN 9005-64-5). The test plants were then grown in a glasshouse under controlled conditions in a glasshouse (at 24/16° C., day/night; 14 hours light; 65% humidity) and watered twice daily. After 13 days, the test was evaluated (10=total damage to plant; 0=no damage to plant).

Solanum nigrum [4] = experiment: as above; conditions: rate 1000 g/ha
Protocol: as §2

Echinochloa crus-galli = experiment: as above; conditions: rate 1000 g/ha
Protocol: as §2

Ipomea hederaceae = experiment: as above; conditions: rate 1000 g/ha
Protocol: as §2

Setaria faberi = experiment: as above; conditions: rate 1000 g/ha
Protocol: as §2

Structure (SMILES) | AMARE (damage to plant) (Amaranthus retroflexus [1]) | SOLNI (damage to plant) (Solanum nigrum [2]) | STEME (damage to plant) (Stellaria media) | NAAOF (damage to plant) (Nasturtium officinale) | AMARE damage score (10=total damage to plant; 0=no damage to plant) (Amaranthus retroflexus [3]) | SOLNI damage score (10=total damage to plant; 0=no damage to plant) (Solanum nigrum [4]) | ECHCG damage score (10=total damage to plant; 0=no damage to plant) (Echinochloa crus-galli) | IPOHE damage score (10=total damage to plant; 0=no damage to plant) (Ipomea hederaceae) | SETFA damage score (10=total damage to plant; 0=no damage to plant) (Setaria faberi)
Cc1ccc(Cl)c(-c2c(OC(=O)C(C)(C)C)c3nccnc3n(CC(F)F)c2=O)c1F [A5] | 4 | 2 | 7 | 5 | – | – | – | – | –
CC(C)(C)C(=O)Oc1c(-c2c(F)ccc(F)c2Cl)c(=O)n(CCCCCl)c2nccnc12 [C4] | 0 | 4 | 1 | 0 | – | – | – | – | –
CC(C)(C)C(=O)Oc1c(-c2c(F)ccc(F)c2Cl)c(=O)n(CC(F)F)c2nccnc12 [A2, 2,2-dimethyl-propionic acid 7-(2-chloro-3,6-difluoro-phenyl)-5-(2,2-difluoro-ethyl)-6-oxo-5,6-dihydro-pyrido[2,3-b]pyrazin-8-yl ester] | 4 | 6 | 9 | 9 | – | – | – | – | –
CC(C)(C)C(=O)Oc1c(-c2ccccc2OC(F)(F)F)c(=O)n(CCC(F)(F)F)c2nccnc12 [C2] | 0 | 4 | 0 | 0 | – | – | – | – | –
CC(C)(C)C(=O)Oc1c(-c2ccccc2OC(F)(F)F)c(=O)n(CC(F)F)c2nccnc12 [A1] | 0 | 6 | 7 | 8 | – | – | – | – | –
COc1ccc(Br)cc1-c1c(O)c2nccnc2n(CC(F)F)c1=O [B12] | – | – | – | – | 9 | 9 | 6 | 6 | 6
CC(C)(C)C(=O)Oc1c(-c2c(F)cccc2Cl)c(=O)n(CC(F)F)c2nccnc12 [A34] | – | – | – | – | 10 | 10 | 4 | 9 | 6
CC(C)(C)C(=O)Oc1c(-c2c(F)ccc(F)c2Cl)c(=O)n(CCF)c2nccnc12 [C9, 2,2-dimethyl-propionic acid 7-(2-chloro-3,6-difluoro-phenyl)-5-(2-fluoro-ethyl)-6-oxo-5,6-dihydro-pyrido[2,3-b]pyrazin-8-yl ester] | – | – | – | – | 7 | 4 | 0 | 5 | 0
O=c1c(-c2c(F)ccc(Br)c2Cl)c(O)c2nccnc2n1CC(F)F [B6] | – | – | – | – | 10 | 10 | 8 | 10 | 8
CC(C)(C)C(=O)Oc1c(-c2c(F)ccc(F)c2Cl)c(=O)n(CCC(F)=C(F)F)c2nccnc12 [C12] | – | – | – | – | 6 | 3 | 0 | 1 | 0
O=c1c(-c2c(F)ccc(Cl)c2Cl)c(O)c2nccnc2n1CC(F)F [B14] | – | – | – | – | 10 | 10 | 6 | 10 | 7
CCc1cc(C)cc(CC)c1-c1c(OC(=O)C(C)C)c2nccnc2n(CC(F)F)c1=O [A12] | – | – | – | – | 3 | 10 | 9 | 9 | 10
COc1cc(F)c(F)cc1-c1c(OC(=O)C(C)(C)C)c2nccnc2n(CC(F)F)c1=O [A44] | – | – | – | – | 9 | 10 | 7 | 6 | 9
O=c1c(-c2cc(F)ccc2Cl)c(O)c2nccnc2n1CC(F)F [B7] | – | – | – | – | 10 | 9 | 7 | 9 | 7
O=c1c(-c2c(F)ccc([N+](=O)[O-])c2Cl)c(O)c2nccnc2n1CC(F)F [B9] | – | – | – | – | 9 | 9 | 8 | 8 | 7
O=C1c2nccnc2N(CCF)C(=O)C1c1c(F)ccc(F)c1Cl (stereo not shown) [D2] | – | – | – | – | 6 | 7 | 1 | 5 | 2
CC(C)(C)C(=O)Oc1c(-c2c(F)ccc(F)c2Cl)c(=O)n(CCC=C(F)F)c2nccnc12 [C11] | – | – | – | – | 5 | 2 | 0 | 0 | 0
CCc1cc(C)cc(CC)c1-c1c(O)c2nccnc2n(CC(F)F)c1=O [B4] | – | – | – | – | 7 | 10 | 8 | 10 | 9
CC(C)(C)C(=O)Oc1c(-c2c(F)ccc(F)c2Cl)c(=O)n(CC(F)(F)F)c2nccnc12 [C8, 2,2-dimethyl-propionic acid 7-(2-chloro-3,6-difluoro-phenyl)-5-(2,2,2-trifluoro-ethyl)-6-oxo-5,6-dihydro-pyrido[2,3-b]pyrazin-8-yl ester] | – | – | – | – | 10 | 10 | 1 | 10 | 4
CC(C)(C)C(=O)Oc1c(-c2cc(F)c(F)cc2Cl)c(=O)n(CC(F)F)c2nccnc12 [A33] | – | – | – | – | 10 | 10 | 4 | 7 | 7
COc1ccc(Br)cc1-c1c(OC(=O)C(C)(C)C)c2nccnc2n(CC(F)F)c1=O [A38] | – | – | – | – | 10 | 9 | 6 | 6 | 8
